Test results as given in US9040691B2, “Hydroxymethylaryl-substituted pyrrolotriazines as ALK1 inhibitors” (BAYER INTELLECTUAL PROPERTY GMBH, priority 2011, dated 2015).

Tested on: hSmad7 mRNA in BMP9-stimulated HMVEC
Test: Smad7 target gene induction: HMVEC cell assay and TaqMan expression analysis
Format: cell-based
Conditions: Homo sapiens, hBMP9 stimulation, Smad7 mRNA by TaqMan
Procedure: B-2a. Smad7 Target Gene Induction: HMVEC Cell Assay and TaqMan Expression Analysis
Activation of ALK1 receptors by BMP9 induces the Smad1/5 signalling pathway and enhances expression of target genes Smad6, Smad7 and Id-1. Induction of Smad7-mRNA in BMP9-stimulated endothelial cells was determined to monitor the cellular potency of ALK1 kinase inhibitors.
Human microvascular endothelial cells (IIMVECadult, Cell Systems, St. Katharinen) were seeded in complete ENGS MV medium with all supplements (LifeLine Cell Technology) in 96 well plates with 10 000 cells per well. After 4 h incubation at 37° C. and 7.5% CO2 in a humidified incubator, medium was replaced with minimal medium (ENGS MV without supplements containing 0.02% FCS). After 16 h, test compounds or medium (controls) were added to the cultures, followed 30 min later by addition of hBMP9 (R&D Systems). Medium was removed 1 to 4 h later, plates were gently washed with phosphate-buffered saline, and cells were lysed with 150 μl per well of ice-cold RLT buffer (Qiagen).
Total cellular RNA was isolated with the Trizol® reagent protocol according to the manufacturer's specifications (Invitrogen, USA) and treated with DNAseI to remove genomic DNA contamination.
For relative quantitation of the mRNA distribution of hSmad7, total RNA from each sample was first reverse-transcribed using the ImProm-II Reverse Transcription System (Promega, USA) according to the manufacturer's protocol. The final volume was adjusted to 200 μl with water.
For relative quantitation of selected mRNA, the Applied Bioscience ABI 7900HT Sequence Detection System was used according to the manufacturer's specifications and protocols. PCR reactions were set up to quantitate hSmad7- and the housekeeping gene L32-mRNA. Forward and reverse primers and probes for hSmad7 and L32 were designed using the Applied Bioscience ABI Primer Expressim software and were synthesized by Eurogentec (Belgium). The hSmad7 forward primer sequence was: Primer 1 (SEQ ID NO 1). The hSmad7 reverse primer sequence was: Primer 2 (SEQ ID NO 2). Probe 1 (SEQ ID NO 3), labelled with FAM as the reporter dye and TAMRA as the quencher, was used as a probe for hSmad7. The L32 forward primer sequence was: Primer 3 (SEQ ID NO 4). The L32 reverse primer sequence was: Primer 4 (SEQ ID NO 5). Probe 2 (SEQ ID NO 6), labelled with FAM as the reporter dye and TAMRA as the quencher, was used as a probe for L32.
The following reagents were prepared in a total of 20 μl added per well: 1× qPCR-MasterMix (Eurogentec, Belgium) and hSmad7 forward and reverse primers each at 200 nM, 200 nM hSmad7 FAM/TAMRA-labelled probe 1 (SEQ ID NO 3), and 5 μl of template cDNA. Correspondingly, a second mix in a total of 20 μl was prepared using L32 FAM/TAMRA-labelled probe 2 (SEQ ID NO 6) and L32 forward and reverse primers added per well in parallel samples.
Thermal cycling parameters were 2 min at 50° C., followed by 10 min at 95° C., followed by 40 cycles of melting at 95° C. for 15 sec and annealing/extending at 60° C. for 1 min.
Calculation of Relative Expression:
The Ct (cycle threshold) values were calculated from the turning point of PCR product quantity curves by the ΔΔCt method (delta-delta Ct): ΔCt=CthSmad7−CtL32; relative expression=2^(15-ΔCt).
IC50 values of test compounds were calculated on basis of relative Smad7 expressions at different compound concentrations.

Row | IC50 [µM] | Structure (SMILES)
1 | 0.125 | CCCc1cc(-c2cc(F)c(CO)c(F)c2)c2c(N)ncnn12 [Example 2, [4-(4-Amino-7-propylpyrrolo[2,1-f][1,2,4]triazin-5-yl)-2,6-difluorophenyl]methanol]
2 | 0.13 | Nc1ncnn2c1c(-c1cc(F)c(CO)c(F)c1)cc2[C@H]1CC[C@H](O)CC1 [Example 7, trans-4-[4-Amino-5-[3,5-difluoro-4-(hydroxymethyl)phenyl]pyrrolo[2,1-f][1,2,4]triazin-7-yl]-cyclohexanol]
3 | 0.8 | Nc1ncnn2c(CN3CCOCC3)cc(-c3ccc(CO)c(Cl)c3)c12 [Example 22, {4-[4-Amino-7-(morpholin-4-ylmethyl)pyrrolo[2,1-f][1,2,4]triazin-5-yl]-2-chlorophenyl}methanol]
4 | 0.18 | Nc1ncnn2c(CCCO)cc(-c3ccc(CO)cc3)c12 [Example 3, 3-{4-Amino-5-[4-(hydroxymethyl)phenyl]pyrrolo[2,1-f][1,2,4]triazin-7-yl}propan-1-ol]
5 | 6 | Nc1ncnn2c(CN3CCOCC3)cc(-c3ccc(CO)c(F)c3)c12 [Example 21, {4-[4-Amino-7-(morpholin-4-ylmethyl)pyrrolo[2,1-f][1,2,4]triazin-5-yl]-2-fluorophenyl}methanol]
6 | 4.4 | Nc1ncnn2c(CN3CCOCC3)cc(-c3cc(F)c(CO)c(F)c3)c12 [Example 20, {4-[4-Amino-7-(morpholin-4-ylmethyl)pyrrolo[2,1-f][1,2,4]triazin-5-yl]-2,6-difluorophenyl}-methanol]

Second part, the compound before the results:

Row | Structure (SMILES) | IC50 [µM]
7 | Nc1ncnn2c([C@@H]3CCCNC3)cc(-c3cc(F)c(CO)c(F)c3)c12 [Example 11, (4-{4-Amino-7-[(3R)-piperidin-3-yl]pyrrolo[2,1-f][1,2,4]triazin-5-yl}-2,6-difluorophenyl)methanol] | 0.09
8 | Nc1nc(-c2cc(-c3ccc(CO)cc3)c3c(N)ncnn23)cs1 [Example 17, {4-[4-Amino-7-(2-amino-1,3-thiazol-4-yl)pyrrolo[2,1-f][1,2,4]triazin-5-yl]phenyl}methanol] | 0.12
9 | CCCc1cc(-c2ccc(CO)cc2)c2c(N)ncnn12 [Example 1, [4-(4-Amino-7-propylpyrrolo[2,1-f][1,2,4]triazin-5-yl)phenyl]methanol] | 0.1
10 | Nc1ncnn2c(C(O)C3CC3)cc(-c3cc(F)c(CO)c(F)c3)c12 (stereo not shown) [Example 5, {4-Amino-5-[3,5-difluoro-4-(hydroxymethyl)phenyl]pyrrolo[2,1-f][1,2,4]triazin-7-yl}(cyclopropyl)methanol] | 0.15
